From US20210253560A1, “PLANT GROWTH REGULATING COMPOUNDS” (SYNGENTA PARTICIPATIONS AG, priority 2018, published 2021) come the findings set out here.

SMILES strings stand for the structures. Read-outs that look alike come from different tables or passages of the source.

This experiment deals with corn leaf. Briefly: Dark induced senescence of corn leaf (leaf discs, image analysis). To be noted: 100 μM-0.0001 μM, 23° C., up to 8 days, 12 replicates, read-out: IC50 for dark induced senescence of corn leaf (concentration at which 50% senescence was achieved). The experiment is classed as in vivo, corn (variety Multitop). The protocol:
It is known that strigolactones regulate (accelerate) leaf senescence, potentially through D14 receptor signaling. Compounds of the present invention (IA) were compared to structurally-related compounds (P) in a corn leaf dark induced senescence assay. Corn plants of variety Multitop were grown in a greenhouse with relative 75% humidity and at 23-25° C. for 6 weeks. 1.4 cm diameter leaf discs were placed into 24-well plates containing a test compounds in a concentration gradient (100 μM-0.0001 μM) at a final concentration of 0.5% DMSO. Each concentration was tested in 12 replicates. Plates were sealed with seal foil. The foil was pierced to provide gas exchange in each well. The plates were placed into the completely dark climatic chamber. Plates were incubated in the chamber with 75% humidity and at 23° C. for 8 days. On days 0, 5, 6, 7 and 8 photographs were taken of each plates, and image analysis conducted with a macro developed using the ImageJ software. The image analysis was used to determine the concentration at which 50% senescence was achieved (IC50), see Table 3. The lower the value, the higher senescence induction potency.

Consider `CC1=CC(OC=C2C(=O)N(CC#N)C3c4ccccc4CC23)OC1=O` (stereo not drawn) [Compound P1], for which the IC50 was found to be 110 nM.
Turning to `CC1=CC(OC=C2C(=O)N(CC#N)C3c4ccccc4CC23)OC1=O` (stereo not drawn) [Compound P2], the IC50 came out at 9700 nM.
With `CC1=CC(OC=C2C(=O)N(CC#N)C3c4ccccc4CC23)OC1=O` (stereo not drawn) [Compound P3], the IC50 came to 7200 nM.
Same read-out and setting: for `CC1=CC(OC=C2C(=O)N(CC#N)C3c4ccccc4CC23)OC1=O` (stereo not drawn) [Compound P4] the value was 2470 nM; for `CC1=CC(OC=C2C(=O)N(CC#N)C3c4ccccc4CC23)OC1=O` (stereo not drawn) [Compound P6-Z], 74 nM.
Regarding `CC(=O)N1C(=O)/C(=C/OC2OC(=O)C(C)=C2C)C2Cc3ccccc3C21` (stereo not drawn) [IA-1, (3E)-1-acetyl-3-[(3,4-dimethyl-5-oxo-2H-furan-2-yl)oxymethylene]-4,8b-dihydro-3aH-indeno[1,2-b]pyrrol-2-one], the IC50 (Zea mays, foliar, 192 h) was determined as 30 nM.
Still for that read-out and setting: in the case of `CC1=C(C)C(O/C=C2/C(=O)N(c3ccccc3)C3c4ccccc4CC23)OC1=O` (stereo not drawn) [IA-8, (3E)-3-[(3,4-dimethyl-5-oxo-2H-furan-2-yl)oxymethylene]-1-phenyl-4,8b-dihydro-3aH-indeno[1,2-b]pyrrol-2-one] it was 170 nM.
On the same count and under the same terms, in the case of `CC1=C(C)C(O/C=C2/C(=O)N(CC#N)C3c4ccccc4CC23)OC1=O` (stereo not drawn) [IA-10-E] it was 155 nM; in that of `CC1=C(C)C(O/C=C2\C(=O)N(CC#N)C3c4ccccc4CC23)OC1=O` (stereo not drawn) [IA-10-Z, 2-[(3Z)-3-[(3,4-dimethyl-5-oxo-2H-furan-2-yl)oxymethylene]-2-oxo-4,8b-dihydro-3aH-indeno[1,2-b]pyrrol-1-yl]acetonitrile], 70 nM.
